ChEMBL document CHEMBL1201862, “PubChem BioAssay data set” (2004)
The source made the active and inactive calls.

Key:
Beta-galactosidase = Beta-galactosidase (Escherichia coli, UniProt Q8VNN2); assay: Dose response counterscreen for EBI2 assay utilizing the enzyme, b-galactosidase.; format: functional
[1] = target: T1, E3 ubiquitin-protein ligase XIAP (Homo sapiens, UniProt P98170); assay: Counter Screen using XIAP-Bir3 for Chemical Antagonists of Bir1/2 domains of IAP-family anti-apoptotic proteins. [Related pubchem assays (depositor defined):AID1018, AID1449, AID1514, AID1638, AID1749, AID1750, AID488957, AID488963]
T1 sequence (P98170 whole entry): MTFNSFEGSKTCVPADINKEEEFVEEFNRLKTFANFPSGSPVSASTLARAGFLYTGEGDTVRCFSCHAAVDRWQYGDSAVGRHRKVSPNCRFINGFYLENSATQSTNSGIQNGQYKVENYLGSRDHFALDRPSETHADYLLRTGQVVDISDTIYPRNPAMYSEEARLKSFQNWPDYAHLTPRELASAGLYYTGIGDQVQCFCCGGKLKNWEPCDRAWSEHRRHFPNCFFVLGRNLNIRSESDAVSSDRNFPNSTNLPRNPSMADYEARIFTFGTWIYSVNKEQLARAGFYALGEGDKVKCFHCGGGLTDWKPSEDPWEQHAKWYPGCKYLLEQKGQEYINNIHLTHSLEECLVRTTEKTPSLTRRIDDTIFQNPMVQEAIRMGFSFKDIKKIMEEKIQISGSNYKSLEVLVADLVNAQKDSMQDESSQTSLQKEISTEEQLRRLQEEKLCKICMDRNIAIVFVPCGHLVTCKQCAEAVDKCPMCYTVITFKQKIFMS

[2] = target: T1, E3 ubiquitin-protein ligase XIAP; assay: small molecules displacing peptide from XIAP – biochemical, IAP family, fluorescence polarization (AID 1018); format: functional
[3] = viability loss in human Jurkat cells – cell-based, luminescence, cytotoxicity control for P. falciparum gametocyte viability project, dose response (AID 1117277); format: functional;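 also: potency reflects loss of cellular ATP meaning fewer viable cells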
[4] = viability inhibitors of stage V gametocytes – luminescence, dose response (AID 1117278); format: functional, cell-based;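 also: gametocytes exposed to compound for 24 hours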
Protein skinhead-1 = target: T2, Protein skinhead-1 (Caenorhabditis elegans, UniProt P34707); format: functional
T2 sequence (P34707 whole entry): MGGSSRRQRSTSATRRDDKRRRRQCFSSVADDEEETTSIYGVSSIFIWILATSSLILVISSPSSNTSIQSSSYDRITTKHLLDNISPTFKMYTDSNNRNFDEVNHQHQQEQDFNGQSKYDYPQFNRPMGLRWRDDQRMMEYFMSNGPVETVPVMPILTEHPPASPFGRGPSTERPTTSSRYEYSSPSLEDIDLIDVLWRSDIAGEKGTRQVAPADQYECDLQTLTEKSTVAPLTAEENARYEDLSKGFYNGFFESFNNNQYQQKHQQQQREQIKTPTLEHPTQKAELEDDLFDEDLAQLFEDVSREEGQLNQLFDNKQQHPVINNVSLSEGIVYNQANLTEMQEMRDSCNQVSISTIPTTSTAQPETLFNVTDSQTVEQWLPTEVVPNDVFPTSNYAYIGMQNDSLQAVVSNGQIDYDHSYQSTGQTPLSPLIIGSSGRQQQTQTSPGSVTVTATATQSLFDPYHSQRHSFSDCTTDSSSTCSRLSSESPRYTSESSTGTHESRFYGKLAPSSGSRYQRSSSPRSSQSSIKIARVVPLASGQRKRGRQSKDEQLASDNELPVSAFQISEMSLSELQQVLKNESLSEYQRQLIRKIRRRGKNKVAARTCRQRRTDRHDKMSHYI

[5] = target: Protein-tyrosine kinase 2-beta (Homo sapiens, UniProt Q14289);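 also: potency of inhibitors of PYK2 kinase phosphorylation of poly-GT substrate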
Sequence of Protein-tyrosine kinase 2-beta (Q14289 whole entry): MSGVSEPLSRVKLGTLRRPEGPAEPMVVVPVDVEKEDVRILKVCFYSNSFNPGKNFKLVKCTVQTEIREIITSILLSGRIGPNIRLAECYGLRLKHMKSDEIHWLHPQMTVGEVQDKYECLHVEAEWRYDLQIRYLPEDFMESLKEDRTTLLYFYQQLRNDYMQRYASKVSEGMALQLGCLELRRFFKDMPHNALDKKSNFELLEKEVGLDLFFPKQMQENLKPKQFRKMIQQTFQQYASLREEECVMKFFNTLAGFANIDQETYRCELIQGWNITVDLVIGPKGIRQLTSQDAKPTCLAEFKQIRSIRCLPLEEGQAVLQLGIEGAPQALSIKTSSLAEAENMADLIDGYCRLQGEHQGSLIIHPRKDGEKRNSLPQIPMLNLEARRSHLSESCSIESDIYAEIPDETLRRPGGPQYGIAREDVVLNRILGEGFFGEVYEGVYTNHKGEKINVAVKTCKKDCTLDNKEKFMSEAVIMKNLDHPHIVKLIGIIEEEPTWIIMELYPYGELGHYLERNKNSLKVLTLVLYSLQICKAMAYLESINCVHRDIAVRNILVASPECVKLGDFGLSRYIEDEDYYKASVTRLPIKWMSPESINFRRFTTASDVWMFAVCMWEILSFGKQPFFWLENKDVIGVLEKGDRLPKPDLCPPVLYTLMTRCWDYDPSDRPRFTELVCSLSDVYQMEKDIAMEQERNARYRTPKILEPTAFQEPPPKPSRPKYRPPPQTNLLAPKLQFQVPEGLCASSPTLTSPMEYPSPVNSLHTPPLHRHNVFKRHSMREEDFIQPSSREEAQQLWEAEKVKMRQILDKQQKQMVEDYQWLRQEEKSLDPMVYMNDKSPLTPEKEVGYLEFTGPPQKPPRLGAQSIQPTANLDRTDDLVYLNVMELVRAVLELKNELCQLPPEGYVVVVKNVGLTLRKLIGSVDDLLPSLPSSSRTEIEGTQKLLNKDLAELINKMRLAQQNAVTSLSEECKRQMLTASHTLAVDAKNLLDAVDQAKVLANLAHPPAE

[6] = target: T3, Sentrin-specific protease 8 (Homo sapiens, UniProt Q96LD8); format: functional
T3 sequence (Q96LD8 whole entry): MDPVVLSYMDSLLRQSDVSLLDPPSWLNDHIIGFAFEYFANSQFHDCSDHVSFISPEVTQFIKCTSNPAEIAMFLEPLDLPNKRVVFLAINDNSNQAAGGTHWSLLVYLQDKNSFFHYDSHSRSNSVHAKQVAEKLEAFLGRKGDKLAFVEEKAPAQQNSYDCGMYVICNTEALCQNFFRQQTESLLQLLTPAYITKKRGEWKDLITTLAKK

[7] = target: T3, Sentrin-specific protease 8; format: functional; remark: listed apart in the source
Estrogen receptor beta = Estrogen receptor beta (Homo sapiens, UniProt Q92731); assay: blockers of SRC-3 recruitment to ERβ – biochemical, ELISA, streptavidin-HRP readout, orthogonal assay, confirmation (AID 1060)
Sequence of Estrogen receptor beta (Q92731 whole entry): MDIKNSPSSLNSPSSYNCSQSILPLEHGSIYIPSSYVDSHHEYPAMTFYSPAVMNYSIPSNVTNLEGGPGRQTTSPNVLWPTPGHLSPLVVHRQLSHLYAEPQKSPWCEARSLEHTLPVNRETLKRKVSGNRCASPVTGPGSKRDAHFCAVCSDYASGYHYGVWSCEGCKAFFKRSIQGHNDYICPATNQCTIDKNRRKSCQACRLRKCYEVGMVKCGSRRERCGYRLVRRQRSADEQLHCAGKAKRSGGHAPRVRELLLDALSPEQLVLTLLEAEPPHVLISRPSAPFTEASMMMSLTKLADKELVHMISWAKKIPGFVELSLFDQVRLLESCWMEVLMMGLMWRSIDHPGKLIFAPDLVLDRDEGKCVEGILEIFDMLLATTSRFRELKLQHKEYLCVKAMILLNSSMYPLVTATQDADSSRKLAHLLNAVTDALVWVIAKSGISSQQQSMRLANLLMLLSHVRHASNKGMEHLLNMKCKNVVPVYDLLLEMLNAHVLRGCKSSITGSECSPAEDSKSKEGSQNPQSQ

[8] = viability of uninfected HEp-2 cells – cell-based, HTS, cytotoxicity control for RSV inhibitor project, dose response (AID 2410); format: functional; settings: human respiratory syncytial virus
Protein RecA = target: T4, Protein RecA (Mycobacterium tuberculosis, UniProt P9WHJ3); assay: Fluorescence Cell-Free Homogeneous Dose Retest to Identify Inhibitors of RecA-Intein Splicing Activity. [Related pubchem assays (depositor defined):AID2097, AID2223, AID489010, AID492950]; format: functional
T4 sequence (P9WHJ3 whole entry): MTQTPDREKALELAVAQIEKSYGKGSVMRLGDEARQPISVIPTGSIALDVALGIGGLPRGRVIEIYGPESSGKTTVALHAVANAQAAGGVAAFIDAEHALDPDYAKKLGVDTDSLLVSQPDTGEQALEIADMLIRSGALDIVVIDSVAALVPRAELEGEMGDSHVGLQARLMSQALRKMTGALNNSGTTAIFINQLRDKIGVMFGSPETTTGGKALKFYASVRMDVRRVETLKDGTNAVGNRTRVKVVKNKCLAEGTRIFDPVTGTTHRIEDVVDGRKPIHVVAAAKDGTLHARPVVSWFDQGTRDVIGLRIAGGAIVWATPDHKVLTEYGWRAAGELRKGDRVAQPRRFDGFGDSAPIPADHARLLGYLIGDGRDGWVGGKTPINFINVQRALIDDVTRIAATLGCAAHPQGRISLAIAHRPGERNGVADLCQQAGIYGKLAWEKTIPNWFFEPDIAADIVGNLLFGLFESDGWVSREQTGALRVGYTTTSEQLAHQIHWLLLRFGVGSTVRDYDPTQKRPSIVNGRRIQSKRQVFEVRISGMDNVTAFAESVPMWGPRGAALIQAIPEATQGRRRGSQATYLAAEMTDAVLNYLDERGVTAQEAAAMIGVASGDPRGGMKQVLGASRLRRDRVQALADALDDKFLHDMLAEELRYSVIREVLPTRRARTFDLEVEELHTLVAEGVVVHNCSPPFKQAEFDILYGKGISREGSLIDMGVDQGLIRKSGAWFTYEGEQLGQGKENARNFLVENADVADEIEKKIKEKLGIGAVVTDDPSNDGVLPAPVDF

Large T antigen = Large T antigen (Simian virus 40, UniProt P03070); format: functional, Betapolyomavirus macacae;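 also: Confirmatory-stage PubChem screen for compounds that inhibit SV40 T antigen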
Sequence of Large T antigen (P03070 whole entry): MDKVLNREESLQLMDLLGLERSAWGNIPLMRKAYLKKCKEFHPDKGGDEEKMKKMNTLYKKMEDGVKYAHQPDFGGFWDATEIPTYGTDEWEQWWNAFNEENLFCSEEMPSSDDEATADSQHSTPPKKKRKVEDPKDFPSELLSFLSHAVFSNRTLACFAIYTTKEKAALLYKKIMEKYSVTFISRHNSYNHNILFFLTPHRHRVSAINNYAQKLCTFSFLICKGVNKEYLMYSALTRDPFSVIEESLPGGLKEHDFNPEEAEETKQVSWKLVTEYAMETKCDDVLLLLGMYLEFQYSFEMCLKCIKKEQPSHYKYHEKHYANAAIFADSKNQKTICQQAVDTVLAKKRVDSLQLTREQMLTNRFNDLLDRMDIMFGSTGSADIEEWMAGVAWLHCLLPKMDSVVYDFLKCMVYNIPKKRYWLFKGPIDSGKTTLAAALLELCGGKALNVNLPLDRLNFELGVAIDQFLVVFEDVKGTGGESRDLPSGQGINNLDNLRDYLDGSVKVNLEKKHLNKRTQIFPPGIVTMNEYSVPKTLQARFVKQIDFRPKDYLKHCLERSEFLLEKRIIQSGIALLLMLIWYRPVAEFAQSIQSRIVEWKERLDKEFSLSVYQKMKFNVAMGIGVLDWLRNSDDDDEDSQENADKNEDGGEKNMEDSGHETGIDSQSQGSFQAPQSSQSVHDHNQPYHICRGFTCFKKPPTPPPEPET

[9] = target: T5, Replicative DNA helicase DnaB (Mycobacterium tuberculosis, UniProt P9WMR3); assay: DnaB intein splicing inhibitors, dose response, biochemical, cell-free fluorescence (AID 449749); format: functional
T5 sequence (P9WMR3 whole entry): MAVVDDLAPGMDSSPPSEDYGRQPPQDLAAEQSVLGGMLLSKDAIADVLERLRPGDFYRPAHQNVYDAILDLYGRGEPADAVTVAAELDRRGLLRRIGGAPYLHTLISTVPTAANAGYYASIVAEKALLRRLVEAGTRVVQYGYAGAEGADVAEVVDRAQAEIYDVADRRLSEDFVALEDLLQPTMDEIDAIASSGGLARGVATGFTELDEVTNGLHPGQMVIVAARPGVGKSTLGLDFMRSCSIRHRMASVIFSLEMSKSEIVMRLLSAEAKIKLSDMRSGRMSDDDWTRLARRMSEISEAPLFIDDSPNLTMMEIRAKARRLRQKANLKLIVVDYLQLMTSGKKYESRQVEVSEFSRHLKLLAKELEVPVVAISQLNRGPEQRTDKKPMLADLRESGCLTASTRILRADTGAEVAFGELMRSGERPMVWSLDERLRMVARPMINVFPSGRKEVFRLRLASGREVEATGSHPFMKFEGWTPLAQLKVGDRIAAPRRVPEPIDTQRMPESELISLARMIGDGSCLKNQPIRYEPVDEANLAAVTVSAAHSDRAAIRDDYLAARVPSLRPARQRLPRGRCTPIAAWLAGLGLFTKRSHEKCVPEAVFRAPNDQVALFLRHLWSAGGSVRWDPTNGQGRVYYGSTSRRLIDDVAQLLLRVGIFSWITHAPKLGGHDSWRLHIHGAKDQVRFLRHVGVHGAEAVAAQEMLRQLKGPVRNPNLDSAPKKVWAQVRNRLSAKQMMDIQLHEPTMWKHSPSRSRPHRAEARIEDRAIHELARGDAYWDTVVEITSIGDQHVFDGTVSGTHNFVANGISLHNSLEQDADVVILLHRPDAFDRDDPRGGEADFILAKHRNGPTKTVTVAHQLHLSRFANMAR

Sequence of Beta-galactosidase (Q8VNN2 whole entry): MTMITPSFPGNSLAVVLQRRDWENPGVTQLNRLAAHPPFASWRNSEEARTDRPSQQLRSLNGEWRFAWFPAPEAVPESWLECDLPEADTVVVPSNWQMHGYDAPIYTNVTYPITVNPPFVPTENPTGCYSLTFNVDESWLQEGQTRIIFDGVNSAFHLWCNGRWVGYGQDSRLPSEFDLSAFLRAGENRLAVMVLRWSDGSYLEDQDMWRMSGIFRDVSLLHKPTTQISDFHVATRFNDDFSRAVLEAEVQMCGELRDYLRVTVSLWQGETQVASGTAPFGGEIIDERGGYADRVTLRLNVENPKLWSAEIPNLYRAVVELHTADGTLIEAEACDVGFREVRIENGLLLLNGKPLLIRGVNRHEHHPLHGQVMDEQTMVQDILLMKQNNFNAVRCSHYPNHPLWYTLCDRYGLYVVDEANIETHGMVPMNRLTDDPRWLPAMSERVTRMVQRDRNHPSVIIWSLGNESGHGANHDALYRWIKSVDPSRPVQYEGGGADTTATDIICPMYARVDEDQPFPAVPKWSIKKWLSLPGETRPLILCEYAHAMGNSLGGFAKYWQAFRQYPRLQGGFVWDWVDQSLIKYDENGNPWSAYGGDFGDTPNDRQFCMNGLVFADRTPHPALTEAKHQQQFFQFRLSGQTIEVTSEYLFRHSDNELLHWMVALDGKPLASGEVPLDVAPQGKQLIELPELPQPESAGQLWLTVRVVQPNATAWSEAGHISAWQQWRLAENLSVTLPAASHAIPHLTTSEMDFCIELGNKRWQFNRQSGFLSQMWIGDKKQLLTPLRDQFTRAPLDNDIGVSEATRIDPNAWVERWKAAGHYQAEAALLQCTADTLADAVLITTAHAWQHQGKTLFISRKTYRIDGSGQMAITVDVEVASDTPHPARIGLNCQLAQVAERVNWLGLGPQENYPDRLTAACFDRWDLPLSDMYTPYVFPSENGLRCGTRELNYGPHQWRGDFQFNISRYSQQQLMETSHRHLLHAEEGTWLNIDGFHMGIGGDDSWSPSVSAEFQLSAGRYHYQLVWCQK

CCOC(=O)c1cnc(SCC(=O)Nc2cc(C(F)(F)F)ccc2N2CCOCC2)nc1N
IC50 (Beta-galactosidase): > 80 µM (inactive)

COC(=O)c1ccc(C(=O)OC)c(NS(C)(=O)=O)c1
IC50 [1]: > 100 µM (inactive)
IC50 [2]: > 100 µM (not active)

COc1ccc(/C=C/C(=O)N2CCN(c3ccccn3)CC2)cc1
IC50 (Beta-galactosidase): > 80 µM (inactive)

CN(C)c1nc(N(C)C)n(C(=O)c2cccs2)n1
IC50 [3]: > 83.3 µM (inactive)
IC50 [4]: > 109 µM (inactive)

C=CCSc1nnc(-c2ccc(Cl)cc2Cl)o1
IC50 [1]: > 100 µM (inactive)
IC50 (Protein skinhead-1): 7.91 µM (active)
IC50 [2]: > 100 µM (not active)

Cc1cc(OCC(=O)Nc2ccc(N3CCN(C(=O)c4ccco4)CC3)cc2)cc(C)c1Cl
IC50 [5]: 5.96 µM (active)

Cc1cc2c(NC(=O)CC(C)(C)CC(=O)O)cccc2nn1
IC50 [6]: 8.03 µM (active)
IC50 [7]: 15.1 µM (active)

CCN1CCc2c(sc(N)c2C#N)C1
IC50 (Estrogen receptor beta): 6.55 µM (not active)
IC50 [5]: 23.6 µM (not active)

N#Cc1ccccc1OCC(=O)OCC(=O)N1CCN(C(=O)c2ccco2)CC1
IC50 [3]: > 83.3 µM (inactive)
IC50 [4]: > 109 µM (inactive)

CCN(CC)C(=O)CSc1nc(N)c2c3c(sc2n1)CC(C)CC3 (centres undefined)
CC50 [8]: 8.74 µM (active)
IC50 [5]: > 69.5 µM (not active)

COc1ccc(OCC(=O)N2CCN(c3nnc(-c4ccccc4)c4ccccc34)CC2)cc1
IC50 (Beta-galactosidase): > 80 µM (inactive)

CCOc1cc(NC2CS(=O)(=O)CC2O)c(OCC)cc1NC(=O)c1ccccc1 (centres undefined)
IC50 [6]: 45.9 µM (active)
EC50 (Protein RecA): > 380 µM (inactive)
IC50 (Large T antigen): 31.1 µM (active)
AC50 [9]: 52.8 µM (active)
IC50 [7]: 34.7 µM (active)
